# Marks after values point to notes of the source that are not given here.
# Tested on: female rats
# Test: Plasma metabolite profiling (GC-MS, LC-MS, SPE-LC-MS) in female rats dosed once daily over 28 days (OECD 407)
# Format: in vivo, rat
# Conditions: high dose
# Outline: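 Metabolites were measured by GC-MS (derivatised) and reversed-phase LC-MS, with steroids by online SPE-LC-MS, in plasma drawn from fasted rats on days 7, 14 and 28 of once-daily dosing (5/sex/group). Values are ratios versus sex-matched untreated controls, normalized to pool samples, with Welch-test p-values.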
compound,measurement,setting,value
C[C@]12CCC(=O)C=C1CC[C@@H]1[C@@H]2CC[C@@]2(C)[C@H]1CC[C@]2(C)O [17-alpha-Methyltestosterone],3-Hydroxybutyrate,"f7, female rats, Table 15a",1.5*
same,"DAG (C18:1,C18:2)","f7, female rats, Table 15a",3.01 *
same,Glutamate,"f7, female rats, Table 15a",1.56 *
same,Glycine,"f7, female rats, Table 15a",1.28 *
same,"Phosphatidylcholine (C16:0,C20:5)","f7, female rats, Table 15a",1.22 *
same,"TAG (C16:0,C16:1)","f7, female rats, Table 15a",3.85 *
same,"TAG (C16:0,C18:1,C18:3)","f7, female rats, Table 15a",8.68 *
same,"TAG (C16:0,C18:2)","f7, female rats, Table 15a",4.63 *
same,"TAG (C18:1,C18:2)","f7, female rats, Table 15a",5.83 *
same,"TAG (C18:2,C18:2)","f7, female rats, Table 15a",4.67 *
same,"TAG (C18:3, C18:2, C18:1)","f7, female rats, Table 15a",6.36*
same,TAG (DAG-Fragment),"f7, female rats, Table 15a",5.82 *
same,TAG No 059,"f7, female rats, Table 15a",3.27 *
same,Threonic acid,"f7, female rats, Table 15a",1.65 *
same,trans-4-Hydroxyproline,"f7, female rats, Table 15a",1.4 *
same,Arginine,"f7, female rats, Table 15b",0.69 *
same,Campesterol,"f7, female rats, Table 15b",0.65 *
same,"Ceramide (d18:1,C24:0)","f7, female rats, Table 15b",0.79 *
same,Lactate,"f7, female rats, Table 15b",0.47 *
same,Lysine,"f7, female rats, Table 15b",0.49 *
same,Metanephrine,"f7, female rats, Table 15b",0.78 *
same,Normetanephrine,"f7, female rats, Table 15b",0.61 *
same,"Phosphatidylcholine (C16:0,C20:5)","f7, female rats, Table 15b",1.22
same,"Phosphatidylcholine (C16:0,C22:6)","f7, female rats, Table 15b",0.86 *
same,"Phosphatidylcholine (C18:0, C20:3)","f7, female rats, Table 15b",0.69 *
same,"Phosphatidylcholine (C18:0,C18:1)","f7, female rats, Table 15b",0.78 *
same,Pyruvate,"f7, female rats, Table 15b",0.52 *
same,"Sphingomyelin (d18:1,C23:0)","f7, female rats, Table 15b",0.56 *
same,"Sphingomyelin (d18:1,C24:0)","f7, female rats, Table 15b",0.67 *
same,Urea,"f7, female rats, Table 15b",0.72 *
same,3-Hydroxybutyrate,"f14, female rats, Table 15a",2.03 *
same,"DAG (C18:1,C18:2)","f14, female rats, Table 15a",3.17 *
same,Glutamate,"f14, female rats, Table 15a",1.43 *
same,Glycine,"f14, female rats, Table 15a",1.15 *
same,"Phosphatidylcholine (C16:0,C20:5)","f14, female rats, Table 15a",1.15 *
same,"TAG (C16:0,C16:1)","f14, female rats, Table 15a",2.59 *
same,"TAG (C16:0,C18:1,C18:3)","f14, female rats, Table 15a",7.54 *
same,"TAG (C16:0,C18:2)","f14, female rats, Table 15a",4.63 *
same,"TAG (C18:1,C18:2)","f14, female rats, Table 15a",4.5 *
same,"TAG (C18:2,C18:2)","f14, female rats, Table 15a",5.09 *
same,"TAG (C18:3, C18:2, C18:1)","f14, female rats, Table 15a",5.29 *
same,TAG (DAG-Fragment),"f14, female rats, Table 15a",5.43 *
same,TAG No 059,"f14, female rats, Table 15a",4.08 *
same,Threonic acid,"f14, female rats, Table 15a",2.84 *
same,trans-4-Hydroxyproline,"f14, female rats, Table 15a",1.56 *
same,Arginine,"f14, female rats, Table 15b",0.67 *
same,Campesterol,"f14, female rats, Table 15b",0.62 *
same,"Ceramide (d18:1,C24:0)","f14, female rats, Table 15b",0.7 *
same,Lactate,"f14, female rats, Table 15b",0.34 *
same,Lysine,"f14, female rats, Table 15b",0.49 *
same,Metanephrine,"f14, female rats, Table 15b",0.66 *
same,Normetanephrine,"f14, female rats, Table 15b",0.65 *
same,"Phosphatidylcholine (C16:0,C20:5)","f14, female rats, Table 15b",1.15
same,"Phosphatidylcholine (C16:0,C22:6)","f14, female rats, Table 15b",0.78 *
same,"Phosphatidylcholine (C18:0, C20:3)","f14, female rats, Table 15b",0.76 *
same,"Phosphatidylcholine (C18:0,C18:1)","f14, female rats, Table 15b",0.94 *
same,Pyruvate,"f14, female rats, Table 15b",0.35 *
same,"Sphingomyelin (d18:1,C23:0)","f14, female rats, Table 15b",0.52 *
same,"Sphingomyelin (d18:1,C24:0)","f14, female rats, Table 15b",0.6 *
same,Urea,"f14, female rats, Table 15b",0.63 *
same,3-Hydroxybutyrate,"f28, female rats, Table 15a",1.49 *
same,"DAG (C18:1,C18:2)","f28, female rats, Table 15a",2.97 *
same,Glutamate,"f28, female rats, Table 15a",1.58 *
same,Glycine,"f28, female rats, Table 15a",1.29 *
same,"Phosphatidylcholine (C16:0,C20:5)","f28, female rats, Table 15a",1.17*
same,"TAG (C16:0,C16:1)","f28, female rats, Table 15a",2.04 *
same,"TAG (C16:0,C18:1,C18:3)","f28, female rats, Table 15a",9.21*
same,"TAG (C16:0,C18:2)","f28, female rats, Table 15a",5.09 *
same,"TAG (C18:1,C18:2)","f28, female rats, Table 15a",5.32 *
same,"TAG (C18:2,C18:2)","f28, female rats, Table 15a",8.15 *
same,"TAG (C18:3, C18:2, C18:1)","f28, female rats, Table 15a",7.3*
same,TAG (DAG-Fragment),"f28, female rats, Table 15a",6.9 *
same,TAG No 059,"f28, female rats, Table 15a",5.2 *
same,Threonic acid,"f28, female rats, Table 15a",2.29 *
same,trans-4-Hydroxyproline,"f28, female rats, Table 15a",1.61 *
same,Arginine,"f28, female rats, Table 15b",0.59 *
same,Campesterol,"f28, female rats, Table 15b",0.66 *
same,"Ceramide (d18:1,C24:0)","f28, female rats, Table 15b",0.52 *
same,Lactate,"f28, female rats, Table 15b",0.52 *
same,Lysine,"f28, female rats, Table 15b",0.52 *
same,Metanephrine,"f28, female rats, Table 15b",0.81 *
same,Normetanephrine,"f28, female rats, Table 15b",0.66 *
same,"Phosphatidylcholine (C16:0,C20:5)","f28, female rats, Table 15b",1.17
same,"Phosphatidylcholine (C16:0,C22:6)","f28, female rats, Table 15b",0.79 *
same,"Phosphatidylcholine (C18:0, C20:3)","f28, female rats, Table 15b",0.68 *
same,"Phosphatidylcholine (C18:0,C18:1)","f28, female rats, Table 15b",0.81 *
same,Pyruvate,"f28, female rats, Table 15b",0.4 *
same,"Sphingomyelin (d18:1,C23:0)","f28, female rats, Table 15b",0.42 *
same,"Sphingomyelin (d18:1,C24:0)","f28, female rats, Table 15b",0.52 *
same,Urea,"f28, female rats, Table 15b",0.8*
